Experimental data published in patent US20260355212A1 (priority 2022, published 2026).
Where two headings read alike, the source gives them in different places.

Assays:
[1] = target: SARS-CoV-2 Mpro (Severe acute respiratory syndrome coronavirus 2, UniProt P0DTD1); assay: SARS-CoV-2 Mpro enzymatic inhibition assay (fluorescence); format: biochemical
Summary of the method: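 A fluorescence readout (340 nm excitation, 490 nm emission) was taken after the substrate reaction ran 60 min at 30° C. Before substrate addition, E. coli-expressed protease and compound (3-fold dilutions, 10 doses, duplicates) sat together 30 min at room temperature. Percent inhibition was fitted by variable-slope nonlinear regression to give IC50.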

[2] = target: MERS Mpro (Middle East respiratory syndrome-related coronavirus, UniProt K9N7C7); assay: biochemical; set-up: species or system MERS-CoV
[3] = target: HCoV-NL63 Mpro (Human coronavirus NL63, UniProt P0C6X5); assay: HCoV-NL63 Mpro enzymatic inhibition assay (fluorescence); format: biochemical
Summary of the method: (§1)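 Fluorescence at 340/490 nm after 60 min substrate cleavage at 30 °C is the read-out. Purified E. coli-expressed protease had been pre-incubated 30 min at room temperature with 10-dose, 3-fold compound series in duplicate.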

[4] = target: SARS-CoV-1 Mpro (Severe acute respiratory syndrome coronavirus, UniProt P0C6X7); assay: biochemical
[5] = target: HCoV-OC43 Mpro (Human coronavirus OC43, UniProt P0C6X6); assay: HCoV-OC43 Mpro enzymatic inhibition assay (fluorescence); format: biochemical
Summary of the method: as §1

[6] = target: HCoV-229E Mpro (Human coronavirus 229E, UniProt P0C6X1); assay: HCoV-229E Mpro enzymatic inhibition assay (fluorescence); format: biochemical
[7] = target: HCoV-HKU1 Mpro (Human coronavirus HKU1, UniProt P0C6X2); assay: HCoV-HKU1 Mpro enzymatic inhibition assay (fluorescence); format: biochemical
Summary of the method: as §1

Sequence of HCoV-OC43 Mpro (P0C6X6 3247-3549 limits assumed): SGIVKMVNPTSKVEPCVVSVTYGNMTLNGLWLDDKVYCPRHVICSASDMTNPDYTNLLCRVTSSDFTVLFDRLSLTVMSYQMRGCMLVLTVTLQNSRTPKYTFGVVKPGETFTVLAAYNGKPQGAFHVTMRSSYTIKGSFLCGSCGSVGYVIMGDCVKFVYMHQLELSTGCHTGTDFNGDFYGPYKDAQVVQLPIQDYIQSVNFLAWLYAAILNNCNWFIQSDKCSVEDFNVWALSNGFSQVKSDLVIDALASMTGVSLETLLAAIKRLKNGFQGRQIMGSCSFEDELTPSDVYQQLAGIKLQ
Sequence of HCoV-NL63 Mpro (P0C6X5 2940-3242 limits assumed): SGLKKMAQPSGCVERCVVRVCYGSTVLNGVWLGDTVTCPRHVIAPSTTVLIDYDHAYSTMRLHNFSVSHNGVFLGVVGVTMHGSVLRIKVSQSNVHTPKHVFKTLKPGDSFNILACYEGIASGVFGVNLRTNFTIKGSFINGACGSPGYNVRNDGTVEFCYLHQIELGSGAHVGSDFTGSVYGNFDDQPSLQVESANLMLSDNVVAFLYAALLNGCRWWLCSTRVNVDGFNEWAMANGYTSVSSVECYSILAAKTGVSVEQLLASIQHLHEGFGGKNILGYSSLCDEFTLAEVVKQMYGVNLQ
Sequence of MERS Mpro (K9N7C7 3248-3553 limits assumed): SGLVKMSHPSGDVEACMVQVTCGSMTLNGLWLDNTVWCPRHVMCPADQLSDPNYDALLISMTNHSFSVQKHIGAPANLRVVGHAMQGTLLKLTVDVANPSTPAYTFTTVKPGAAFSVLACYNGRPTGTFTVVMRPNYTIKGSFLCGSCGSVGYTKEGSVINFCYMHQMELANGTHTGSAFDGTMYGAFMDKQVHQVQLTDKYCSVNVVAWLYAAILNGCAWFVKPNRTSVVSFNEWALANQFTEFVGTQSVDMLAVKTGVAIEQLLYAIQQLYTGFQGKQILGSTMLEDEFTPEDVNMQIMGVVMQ
Sequence of HCoV-229E Mpro (P0C6X1 2966-3267 limits assumed): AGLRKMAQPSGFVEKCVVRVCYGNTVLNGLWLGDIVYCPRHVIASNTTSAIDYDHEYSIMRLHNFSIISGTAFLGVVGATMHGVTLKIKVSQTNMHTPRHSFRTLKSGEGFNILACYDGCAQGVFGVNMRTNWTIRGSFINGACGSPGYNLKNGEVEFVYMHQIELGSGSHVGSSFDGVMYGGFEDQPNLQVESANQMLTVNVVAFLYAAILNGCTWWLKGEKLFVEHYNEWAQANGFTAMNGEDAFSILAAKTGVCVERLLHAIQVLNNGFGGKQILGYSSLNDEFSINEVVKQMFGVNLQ
Sequence of HCoV-HKU1 Mpro (P0C6X2 3335-3637 limits assumed): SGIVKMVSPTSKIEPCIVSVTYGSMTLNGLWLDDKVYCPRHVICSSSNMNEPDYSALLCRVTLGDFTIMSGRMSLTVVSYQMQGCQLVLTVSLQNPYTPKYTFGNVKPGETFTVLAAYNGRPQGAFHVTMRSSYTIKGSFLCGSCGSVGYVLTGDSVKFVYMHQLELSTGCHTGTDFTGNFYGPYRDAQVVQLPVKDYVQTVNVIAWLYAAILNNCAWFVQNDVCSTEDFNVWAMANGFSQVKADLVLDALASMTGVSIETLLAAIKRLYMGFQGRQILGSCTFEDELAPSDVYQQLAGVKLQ

What does the source list for `O=C[C@H](C[C@@H]1CCNC1=O)NC(=O)[C@@H]1C[C@@H](Cc2cccc(Cl)c2)CN1C(=O)c1cc2ccccc2[nH]1` [Compound 137, (2S,4R)-4-(3-Chlorobenzyl)-1-(1H-indole-2-carbonyl)-N—((S)-1-oxo-3-((S)-2-oxopyrrolidin-3-yl)propan-2-yl)pyrrolidine-2-carboxamide]?
IC50 [1]: 478 nM; IC50 [2]: 36300 nM; IC50 [3]: 6560 nM; IC50 [4]: 1520 nM; IC50 [5]: 1420 nM; IC50 [6]: 1260 nM; IC50 [7]: 262 nM

Which IC50 ([1]; mean, 25 nM protein, 25 μM substrate, 30 min pre-incubation, 60 min at 30° C., read-out: Mpro_SARS-CoV-2 mean IC50) does the source give for `O=C[C@H](C[C@@H]1CCNC1=O)NC(=O)[C@@H]1CCCN1C(=O)c1cc2ccccc2[nH]1` [Compound 138] here?
Its IC50 is 499 nM.

And the IC50 [2]?
The IC50 was 1730 nM.

And the IC50 [3]?
Its IC50 is 417 nM.

And the IC50 [4]?
The IC50 was 691 nM.

And the IC50 [5]?
The IC50 was 317 nM.

And the IC50 [6]?
The IC50 was 208 nM.

What about the IC50 [7] of the same molecule?
Its IC50 is 227 nM.
